{"source": "patent US5578643A", "about": "“Protective prostaglandins for use in conjunction with chemotherapeutic agents” (Loyola University of Chicago, priority 1994, dated 1996)", "key": {"hair medullary cells": {"test_system": "hair medullary cells", "assay": "Number of hair medullary cells four days after a single dose of chemotherapeutic agent, with or without misoprostol", "type": "in vivo, CF1 mice", "conditions": "4 days after single IP dose: DOX 0.3, CTX 1, VP-16-213 0.3, ARA-C 8, HU 10, 5 FU 1.0, Methotrexate 0.2, Bleomycin 0.05, Mitomycin C 0.01, Cisplatin 0.25, Carboplatin 1.0, Taxol 0.6 mg; untreated control 51.4 ± 0.6", "protocol": "FIG. 13 is a representation of photographs of shafts of hair showing a single line of medullary cells in control mice (Panel A) and in mice 4 days after they were given a single dose of 0.3 mg of VP-16-213 (Panel B).\nNumber of Hair Medullary Cells as a Measure of Protection from Injury caused by Chemotherapeutic Agents.\nThe shafts of hair in CF1 mice contain usually a single line of about 50±1 medullary cells. These cells are very sensitive to cytotoxic agents (see Potten, C. S., Geng, L., and Taylor, P., Hair Medullary Cell Counts: a Simple and Sensitive Indicator of Radiation Exposure. Int. J Radiat. Biol., 57:13-21, 1990). Single doses of cytotoxic chemotherapeutic agents greatly reduce the number of medullary cells which reach a nadir at 4 days after administration of the agent. This cell system has been used for the evaluation of misoprostol-induced protection from several chemotherapeutic agents.\nCF1 mice had hair from an area of their rump plucked to induce anagen growth as described in Example 2 above. […] In separate groups, mice received misoprostol (40 μg/average 30 g mouse) either subcutaneously or applied topically 2 hours before each of the chemotherapeutic agents listed above. Untreated controls were used since it has been previously determined that water, or 2% EtOH in water, or phosphate buffer at pH=6.8 (the vehicles for the all agents used) had no influence on the cell counts compared to untreated controls. Twenty-five hairs from each animal of each group were dissected from Feulgen stained samples taken from the mice 4 days after treatment.\nThe number of medullary cells was averaged (n=4) for each treatment group and the results for all chemotherapeutic agents tested to date are presented in Table I."}, "skin (hair follicles)": {"test_system": "skin (hair follicles)", "assay": "Hair count after a single dose of doxorubicin, with or without PGE1", "type": "in vivo, mice", "conditions": "FIG. 11", "protocol": "FIG. 11 is a graph illustrating the number of hairs per 4.16 sq. mm of skin area in control mice, in mice that received 0.5 mg of doxorubicin or in mice that received 10 μg of PGE1 2 hours before receiving 0.5 mg of doxorubicin. (Data are the means of 6 mice (2 field/mouse)±SEM.)\n(§1) The hair counts from skin fields of control (open bar), DOX (striped bar) and misoprostol+DOX (filled bar) treated mice are shown in FIG. 9. […] Misoprostol given before DOX increased the hair count to 213±7.8. […] Since prostaglandin receptors are not evenly distributed, protection may not be evenly distributed. PGE1 is associated with the skin (hair follicles) but not with the gut. The ability of PGE1 to protect the skin (hair follicles) and the small intestine from cell injury caused by doxorubicin was tested. […] A single dose of 0.5 mg of doxorubicin reduced this count to 43±8. Administration of 10 μg of PGE1 prior to administration of doxorubicin provided protection as indicated by the increase in the number of hairs to 111±12. […] More evidence is presented in Example 3."}, "[1]": {"test_system": "mice given doxorubicin (DOX)", "assay": "Survival of mice (percent survival over 15 days) after doxorubicin, with or without prior prostaglandin", "conditions": "0.75 mg of DOX IP alone; n=16; FIG. 3", "protocol": "(§2) FIG. 1 is a graph illustrating percent survival of mice over 15 days as a function of the time interval (in hours) between the administration of misoprostol and the subsequent administration of doxorubicin. (The two curves represent duplicate experiments; 12 animals per experiment.)\n(§3) FIG. 2 is a graph illustrating the percent survival of mice over 15 days following the administration of 0.5 mg of doxorubicin (open circles) and mice given 40 μg of misoprostol 2 hours before administration of 0.5 mg of doxorubicin (filled circles). (N=16 for each group).\n(§4) FIG. 3 is a graph illustrating the percent survival of mice over 15 days following the administration of 0.75 mg of doxorubicin (open circles) and mice given 40 μg of misoprostol 2 hours before administration of 0.75 mg of doxorubicin (filled circles). (N=16 for each group).\n(§5) Mortality of mice is a measure of PG-induced protection from death due to severe normal tissue injury inflicted by chemotherapy agents.\n(§6) This assay was accomplished by injecting intraperitoneally (IP) separate groups of mice with a range of doses of chemotherapeutic agents. […] In some groups of mice, longevity was recorded by plotting the number of animals remaining alive (percent survival) versus time following the administration of the chemotherapeutic agent.\n(§7) PG-induced protection from the toxic chemotherapeutic agents was measured by subcutaneous (SC) injection of the PG at various times prior to or after the IP administration of the chemotherapeutic agent. […] The time interval was varied from 15 minutes to 5 hours. The two curves represent two separate experiments with 20 mice in each experiment. The \"0\" time point is the percentage of mice that survived 15 days after administration of doxorubicin alone."}, "[2]": {"assay": "Survival of mice (percent survival over 15 days) after doxorubicin, with or without prior prostaglandin", "conditions": "mouse, in vivo, ip, 0.5 mg", "protocol": "as §2, §3, §4, §5, §6, §7"}, "small intestine": {"test_system": "small intestine", "assay": "Intestinal microcolonies in DOX treated mice, with or without PGE1", "type": "in vivo", "conditions": "FIG. 12", "source_text": "(Data are the means of 4 mice±1 SEM.)\nas §1"}, "hair follicles": {"test_system": "hair follicles", "assay": "Hair count / hair loss (alopecia) caused by chemotherapeutic agents, 5 daily treatments", "type": "in vivo, mice", "conditions": "0.1 mg DOX daily for 5 days IP; controls 248±5; FIG. 9", "protocol": "Panel C is a representation of a photomicrograph of an animal given 40 μg of misoprostol, 2 hours before the 0.1 mg daily dose of doxorubicin given each day for 5 days.\n(Data are the means of 6 mice (2 fields/mouse)±1 SEM.)\nAmount of Hair Loss as a Measure of PG-induced Protection from Alopecia caused by Chemotherapeutic Agents.\nOne of the side effects of chemotherapy in cancer patients is hair loss or alopecia. Studies were conducted to measure a possible protective effect of PGs from alopecia caused by chemotherapeutic agents. […] The hairs on the rumps of mice (n=4/group) were plucked to induce a growth or anagen cycle within hair follicles which continues for about 18 days. […] Control groups (n=4) received no treatment or misoprostol alone."}, "[3]": {"test_system": "mice given graded doses of doxorubicin (DOX)", "assay": "DOX dose response: dose killing 50% of the mice within 15 days, alone or after PG or WR-2721", "type": "in vivo", "conditions": "for effect on DOX dose necessary to kill 50% of mice: 10 μg of 16,16-dimethyl PGE2 or 25 μg of SC-44932, 2 hours before graded doses of doxorubicin, n=8, FIG. 6", "protocol": "The open triangle is data of a group of 10 mice given WR-2721, 30 minutes before administration of 0.75 mg of doxorubicin. (The lines are computer fit spline curves through the data; n=24 per data point on each curve).\n(The lines are computer fit spline curves through the data; n=8 per data point for each of the PG-treated groups and n=24 for the data points of mice treated only with doxorubicin).\nIt was observed that all acute deaths due to DOX treatment alone occurred before day 15 following DOX administration. Subsequently, the parameter of death within 15 days was used to investigate the DOX dose response administered IP alone or 2 hours after 40 μg of misoprostol was given subcutaneously (sc). In this study, a dose of about 0.5 mg of DOX/average 30 gram mouse, killed 50% of the DOX treated mice (see FIG. 5).\nA comparison of PG-induced protection was made to that of protection by WR-2721; an agent reported to protect from some chemotherapeutic agents. […] Two other PGs representing different structural prostaglandins than misoprostol were also investigated for their effectiveness in protecting mice from mortality resulting from administration of graded doses of DOX."}, "[4]": {"test_system": "white blood cells (WBCs) in the peripheral circulation", "assay": "WBC counts and differential counts in peripheral blood of DOX treated mice", "type": "in vivo", "protocol": "FIG. 7 is a graph illustrating the protective effect of misoprostol (given 2 hours before doxorubicin) on WBC counts compared to the effect of doxorubicin alone on WBC counts as function of time (in days). (The numbers 1 and 2 are duplicate studies.)\nDeath within 15 days of DOX treatment alone is most likely associated with bone marrow injury. […] DOX, therefore, appears to not only reduce the total WBC, but has a particularly marked effect on lymphocytes."}, "kidney": {"test_system": "kidney", "conditions": "bolus infusions of cisplatin; Glover et al.; cited from earlier work"}, "humans": {"test_system": "humans", "conditions": "WR-2721 in large protective doses; cited from earlier work"}}}
{"molecule": "N.N.O=C([O-])C1(C(=O)[O-])CCC1.[Pt+2]", "note": "[Carboplatin, carboplatin]", "values": [{"measurement": "Number of Medullar Cells ± 1 SEM, chemotherapeutic agent IP alone", "setting": "hair medullary cells", "result": "37.8 ± 2.4"}]}
{"molecule": "COc1cccc2c1C(=O)c1c(O)c3c(c(O)c1C2=O)C[C@@](O)(C(=O)CO)C[C@@H]3O[C@H]1C[C@H](N)[C@H](O)[C@H](C)O1", "note": "[DOX, doxorubicin]", "values": [{"measurement": "Number of Medullar Cells ± 1 SEM, chemotherapeutic agent IP alone", "setting": "hair medullary cells", "result": "18.3 ± 1.7"}, {"measurement": "number of hairs, doxorubicin alone", "setting": "skin (hair follicles); single dose of 0.5 mg doxorubicin, control 237±5", "result": "43±8", "unit": "hairs per 4.16 sq. mm"}, {"measurement": "mortality, DOX alone", "setting": "[1]", "result": "All of the mice were dead by six days"}, {"measurement": "survival at 360 h", "setting": "[2]", "result": "~25", "unit": "%"}, {"measurement": "number of intestinal colonies per circumference, DOX alone", "setting": "small intestine; 0.5 mg of doxorubicin", "result": "6±0.3 intestinal colonies per circumference"}, {"measurement": "number of hairs, DOX alone", "setting": "hair follicles", "result": "144±3", "unit": "hairs per 4.42 sq. mm"}, {"measurement": "dose of DOX that killed 50% of the mice, DOX alone", "setting": "[3]; IP, death within 15 days, FIG. 5", "result": "about 0.5 mg of DOX/average 30 gram mouse"}, {"measurement": "time of all acute deaths due to DOX treatment alone (before day)", "setting": "[3]; following DOX administration", "result": "< 15", "unit": "days"}, {"measurement": "WBCs in the peripheral circulation, DOX alone", "setting": "[4]; 0.5 mg DOX/30 gram mouse, FIG. 7", "result": "sharply reduced over 7 days following treatment"}, {"measurement": "percentage of lymphocytes, DOX alone", "setting": "[4]; 0.5 mg of DOX, differential counts, control mice about 85%", "result": "less than 10%"}]}
{"molecule": "bleomycin", "values": [{"measurement": "Number of Medullar Cells ± 1 SEM, chemotherapeutic agent IP alone", "setting": "hair medullary cells", "result": "30.4 ± 1.4"}]}
{"molecule": "O=P1(N(CCCl)CCCl)NCCCO1", "note": "(stereo not drawn) [CTX, cytoxan]", "values": [{"measurement": "Number of Medullar Cells ± 1 SEM, chemotherapeutic agent IP alone", "setting": "hair medullary cells", "result": "22.1 ± 1.9"}]}
{"molecule": "NCCCNCCSP(=O)(O)O", "note": "[WR-2721, S-2-(3-aminopropylamino) ethylphosphorothioxic acid]", "values": [{"measurement": "kidney protection from cisplatin injury", "setting": "kidney", "result": "protect the kidney from injury caused by bolus infusions of cisplatin"}, {"measurement": "protection of mice from DOX by WR-2721", "setting": "[3]; WR-2721 30 minutes before 0.75 mg of doxorubicin, n=10, FIG. 5", "result": "did not protect mice (n=10) from DOX treatment"}, {"measurement": "side effects in humans", "setting": "humans", "result": "causes hypotension, nausea, and vomiting in humans"}]}
{"molecule": "C/C=C/C=C/[C@](C)(O)C/C=C/C1C(O)CC(=O)C1CC/C=C\\CCC(=O)OC", "note": "(mixture of isomers) [SC-44932, (±) methyl, 7-[3α-hydroxy-2β-(4R-hydroxy-4-methyl-1E, 5E,7E-nonatrienyl)-5-oxo-1α-cyclopentyl]-4-Z-heptenoate]", "values": [{"measurement": "effect on DOX dose necessary to kill 50% of mice", "setting": "[3]", "result": "increased the DOX dose necessary to kill 50% of a population (n=8) of mice"}]}
{"molecule": "CCCCC(C)(C)[C@H](O)/C=C/[C@H]1[C@H](O)CC(=O)[C@@H]1C/C=C\\CCCC(=O)O", "note": "[16,16-dimethyl PGE2, 16,16-dimethyl prostaglandin E2]", "values": [{"measurement": "effect on DOX dose necessary to kill 50% of mice", "setting": "[3]", "result": "increased the DOX dose necessary to kill 50% of a population (n=8) of mice"}]}
{"molecule": "N.N.[Cl][Pt][Cl]", "note": "[Cisplatin, cisplatin]", "values": [{"measurement": "Number of Medullar Cells ± 1 SEM, chemotherapeutic agent IP alone", "setting": "hair medullary cells", "result": "25.9 ± 1.5"}]}
{"molecule": "CCCCC[C@H](O)/C=C/[C@H]1[C@H](O)CC(=O)[C@@H]1CCCCCCC(=O)O", "note": "[PGE1]", "values": [{"measurement": "number of hairs, PGE1 + doxorubicin", "setting": "skin (hair follicles); 10 μg of PGE1 2 hours before 0.5 mg doxorubicin", "result": "111±12", "unit": "hairs per 4.16 sq. mm"}, {"measurement": "number of intestinal colonies per circumference, PGE1 + DOX", "setting": "small intestine; 10 μg of PGE1 (b62 prints .rho.g) 2 hours before 0.5 mg doxorubicin", "result": "did not change"}]}
